Drawing on PubChem BioAssay (NCI), this text covers TGI for 30 compounds.

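How tested: cells in 96-well plates exposed to compound for 48 hours at five concentrations. TGI: total growth inhibition.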

In one test the test system is A549 NSCLC. As to the kind of experiment: NCI-60 cell line screen, 48 h.
Compound `CCCCC1c2c([nH]c3ccccc23)C2C(=O)N(c3ccc(OC)cc3)C(=O)C2C1CCC` (stereo not given) registered a TGI greater than 10 µM.
The same measure, in the same setting: the result for `CCN(CC)CCOc1ccc(N2C(=O)c3cc(OC)c(OC)cc3C2=O)cc1` reads greater than 100 µM.
The compound `C(=N\NC1=NCCCN1)/c1ccc2ccccc2c1` yielded a TGI of 22.4 µM.
Still for that read-out and setting: under `COc1ccc(C#CC(=O)O)c(OC)c1` stands greater than 100 µM.
Regarding `CCOC(=O)NC(=S)NN(C)C1=NCC(C)(C)S1`, the TGI was greater than 100 µM.
Still for that read-out and setting: under `O=c1c2cc3c(cc2[nH]c2ncccc12)OCO3` stands greater than 10 µM.
The same measure, in the same setting: the result for `Cc1csc(-c2cn(C)c3c2C(=O)C(N)=CC3=O)n1` reads 8.76 µM.

The subject of the next test is HL-60(TB) leukemia. Kind of test: NCI-60 cell line screen, 48 h.
The compound `O=P(c1ccccc1)(c1ccccc1)N1O[C@@H](c2ccccc2)C=C[C@H]1c1ccccc1` returned a TGI of 28.4 µM.
Same read-out and setting: under `COC(=O)[C@]12CC[C@H]3CN(C(=O)OCc4ccccc4)[C@H]([C@H]31)[C@H](c1ccco1)N2S(=O)(=O)c1ccc(C)cc1` stands 58.7 µM; under `CCCNC(=O)CCC(C)[C@H]1CCC2C3C(C[C@H](OC(C)=O)[C@@]21C)[C@@]1(C)CCC2(C[C@H]1C[C@H]3OC(C)=O)OOC1(CCC(C)CC1)OO2` (stereo not given in full), 32.4 µM.
As for `CCCn1c(CN(Cc2nc3ccccc3n2CCC)Cc2nc3ccccc3n2CCC)nc2ccccc21`, the TGI worked out at 4.46 µM.
Still for that read-out and setting: the result for `CSc1c(C#N)c(N)n2c1C(=O)N(c1ccccc1)C2=S` reads greater than 100 µM; that for `NNC(=O)c1ccc[n+](CCc2ccccc2)c1`, greater than 100 µM.
Still for that read-out and setting: under `COc1cc(NS(C)(=O)=O)ccc1N1Cc2cnc3ccc4[nH]c(C)cc1c4c23` stands greater than 100 µM.
Same read-out and setting: the result for `C=C[C@@H]1C(CO)=CCC2[C@H]1CCC1C(C)(C)C(=O)CC[C@]21C` (stereo not given in full) reads greater than 100 µM.
The compound `COc1ccc2cc3c4cc5c(cc4cc[n+]3cc2c1OC)OCO5` showed a TGI greater than 65.5 µM.
The same measure, in the same setting: the result for `CCN(CCO)CC1COc2ccccc2O1` (stereo not given) reads greater than 100 µM; that for `C/C(CC1C2CCCC1C2)=N\NC(N)=O` (stereo not given), greater than 100 µM.
Same read-out and setting: under `N#CC(C#N)=CNC(=S)c1ccncc1` stands greater than 100 µM.
On the same count and under the same terms, the result for `C1=CC2=CC=CC3c4nc5ccc6ccccc6c5nc4C(=C1)C23` (stereo not given) reads greater than 100 µM; that for `O=c1cc(N=P(c2ccccc2)(c2ccccc2)c2ccccc2)n(-c2ccccc2)c(=O)n1-c1ccccc1`, 44.6 µM.
Compound `O=C(NCCCN(CCCCN(CCCNC(=O)C(F)(F)F)Cc1ccccc1)Cc1ccccc1)C(F)(F)F` displayed a TGI of 36.3 µM.
Compound `COc1ccc(C2(CC(C)O)SCCCS2)cc1` (stereo not given) showed a TGI greater than 100 µM.
On the same count and under the same terms, the result for `Clc1ccc(-c2nn3c(-c4ccncc4)nnc3s2)cc1` reads greater than 100 µM.
Still for that read-out and setting: under `O=C1/C(=C\c2cccc(Oc3ccccc3)c2)S(=O)(=O)C(c2ccccc2)N1Cc1ccccc1` (stereo not given) stands 57.7 µM; under `COc1ccc(C(OCC2OC(n3cc(C)c(=O)[nH]c3=O)CC2n2cc(Cn3cc(F)c(=O)[nH]c3=O)nn2)(c2ccccc2)c2ccccc2)cc1` (stereo not given), 5.83 µM.
Still for that read-out and setting: under `Cc1ccccc1C(O)(c1nccn1C)c1nccn1C` stands greater than 100 µM.
In the case of `C=CCn1c(=O)ccn(COCCO)c1=O`, the TGI is greater than 100 µM.
Same read-out and setting: under `Oc1ccccc1/C=N/c1nc2cc3sc(/N=C/c4ccccc4O)nc3cc2s1` stands greater than 73.3 µM; under `CCCCC1c2c([nH]c3ccccc23)C2C(=O)N(c3ccc(OC)cc3)C(=O)C2C1CCC` (stereo not given), 5.45 µM.
Same read-out and setting: under `CCN(CC)CCOc1ccc(N2C(=O)c3cc(OC)c(OC)cc3C2=O)cc1` stands greater than 100 µM; under `C(=N\NC1=NCCCN1)/c1ccc2ccccc2c1`, 21 µM.
On the same count and under the same terms, the result for `O=C(N=Nc1cc(Cl)ccc1Cl)NNc1cc(Cl)ccc1Cl` reads 32.4 µM.
With `COc1ccc(C#CC(=O)O)c(OC)c1`, the TGI is greater than 100 µM.
On the same count and under the same terms, the result for `CCOC(=O)NC(=S)NN(C)C1=NCC(C)(C)S1` reads greater than 100 µM; that for `O=c1c2cc3c(cc2[nH]c2ncccc12)OCO3`, greater than 10 µM; that for `Cc1csc(-c2cn(C)c3c2C(=O)C(N)=CC3=O)n1`, 14.8 µM.

A further test has as its system HCC-2998 colon. As to the kind of experiment: NCI-60 cell line screen, 48 h.
The compound `O=P(c1ccccc1)(c1ccccc1)N1O[C@@H](c2ccccc2)C=C[C@H]1c1ccccc1` returned a TGI of 27.5 µM.
On the same count and under the same terms, the result for `COC(=O)[C@]12CC[C@H]3CN(C(=O)OCc4ccccc4)[C@H]([C@H]31)[C@H](c1ccco1)N2S(=O)(=O)c1ccc(C)cc1` reads 34.5 µM.
The compound `CCCNC(=O)CCC(C)[C@H]1CCC2C3C(C[C@H](OC(C)=O)[C@@]21C)[C@@]1(C)CCC2(C[C@H]1C[C@H]3OC(C)=O)OOC1(CCC(C)CC1)OO2` (stereo not given in full) yielded a TGI of 79.1 µM.
The same measure, in the same setting: under `CCCn1c(CN(Cc2nc3ccccc3n2CCC)Cc2nc3ccccc3n2CCC)nc2ccccc21` stands 30 µM.
Same read-out and setting: under `CSc1c(C#N)c(N)n2c1C(=O)N(c1ccccc1)C2=S` stands greater than 100 µM.
The same measure, in the same setting: under `NNC(=O)c1ccc[n+](CCc2ccccc2)c1` stands greater than 100 µM; under `COc1cc(NS(C)(=O)=O)ccc1N1Cc2cnc3ccc4[nH]c(C)cc1c4c23`, greater than 100 µM.
In turn, `C=C[C@@H]1C(CO)=CCC2[C@H]1CCC1C(C)(C)C(=O)CC[C@]21C` (stereo not given in full) had a TGI greater than 100 µM.
In the case of `COc1ccc2cc3c4cc5c(cc4cc[n+]3cc2c1OC)OCO5`, the TGI is greater than 55.5 µM.
The compound `CCN(CCO)CC1COc2ccccc2O1` (stereo not given) came in with a TGI greater than 100 µM.
On the same count and under the same terms, under `C/C(CC1C2CCCC1C2)=N\NC(N)=O` (stereo not given) stands greater than 100 µM; under `N#CC(C#N)=CNC(=S)c1ccncc1`, greater than 100 µM; under `C1=CC2=CC=CC3c4nc5ccc6ccccc6c5nc4C(=C1)C23` (stereo not given), greater than 100 µM.
Still for that read-out and setting: under `O=c1cc(N=P(c2ccccc2)(c2ccccc2)c2ccccc2)n(-c2ccccc2)c(=O)n1-c1ccccc1` stands 69.7 µM; under `O=C(NCCCN(CCCCN(CCCNC(=O)C(F)(F)F)Cc1ccccc1)Cc1ccccc1)C(F)(F)F`, 14.7 µM.
Same read-out and setting: under `COc1ccc(C2(CC(C)O)SCCCS2)cc1` (stereo not given) stands greater than 100 µM; under `O=C1/C(=C\c2cccc(Oc3ccccc3)c2)S(=O)(=O)C(c2ccccc2)N1Cc1ccccc1` (stereo not given), 82.5 µM; under `COc1ccc(C(OCC2OC(n3cc(C)c(=O)[nH]c3=O)CC2n2cc(Cn3cc(F)c(=O)[nH]c3=O)nn2)(c2ccccc2)c2ccccc2)cc1` (stereo not given), 15.1 µM.
In turn, `Cc1ccccc1C(O)(c1nccn1C)c1nccn1C` returned a TGI greater than 100 µM.
On the same count and under the same terms, under `C=CCn1c(=O)ccn(COCCO)c1=O` stands greater than 100 µM; under `Oc1ccccc1/C=N/c1nc2cc3sc(/N=C/c4ccccc4O)nc3cc2s1`, greater than 100 µM.
For `CCCCC1c2c([nH]c3ccccc23)C2C(=O)N(c3ccc(OC)cc3)C(=O)C2C1CCC` (stereo not given), the TGI was greater than 10 µM.
Still for that read-out and setting: under `CCN(CC)CCOc1ccc(N2C(=O)c3cc(OC)c(OC)cc3C2=O)cc1` stands greater than 100 µM; under `C(=N\NC1=NCCCN1)/c1ccc2ccccc2c1`, 10.5 µM; under `O=C(N=Nc1cc(Cl)ccc1Cl)NNc1cc(Cl)ccc1Cl`, 94.1 µM.
The same measure, in the same setting: the result for `COc1ccc(C#CC(=O)O)c(OC)c1` reads greater than 100 µM.
Same read-out and setting: the result for `O=c1c2cc3c(cc2[nH]c2ncccc12)OCO3` reads greater than 10 µM; that for `Cc1csc(-c2cn(C)c3c2C(=O)C(N)=CC3=O)n1`, greater than 100 µM.
